Reference: patent US7169815B2, “3-methoxybenzyl thiourea derivatives and improved lipid compositions containing same” (The United States of America as represented by the …, priority 2000, dated 2007)

Key:
[1] = Oxidative Stability by Rotating Pressure Vessel (RBOT) of refined meadowfoam seed oil plus thiourea compounds
Description: Another presently preferred method of determining oxidative stability of lipids and oils employs the Oxidative Stability by Rotating Pressure Vessel (RBOT) test. In this test, oxidative stability, determined according to the ASTM D2272-98 test method (ASTM, 2001, “Standard Test Method for Oxidation Stability of Steam Turbine Oils by Rotating Pressure Vessel,” in Book of Standards, Vol. 05.01., American Society for Testing and Materials, West Conshohocken, Pa.), measures the time for oxygen pressure to decrease in a closed stainless steel vessel containing a lipid or oil when heated with a copper coil catalyst. Oxygen taken up by the lipid or oil during the reaction is an indication of oil degradation.
In these experiments, Oxidative Stability by Rotating Pressure Vessel (RBOT) tests were performed with different 3-methoxybenzyl thiourea compounds synthesized in Example 3 that were mixed in different quantities with different mono- and polyunsaturated vegetable oils. Hexane was used to clean and store the copper coils, but all other aspects of the Oxidative Stability by Rotating Pressure Vessel (RBOT) test were the same as in the standard ASTM D2272–98 test method (ASTM, 2001, “Standard Test Method for Oxidation Stability of Steam Turbine Oils by Rotating Pressure Vessel,” in Book of Standards, Vol. 05.01., American Society for Testing and Materials, West Conshohocken, Pa.).

[2] = Decomposition temperature by differential scanning calorimetry; type: physicochemical; details: DSC, onset of decrease in slope of temperature-heat flow curve; unit not given (scans in ° C.)
Experimental: A dual cell Perkin Elmer differential scanning calorimeter (PE DSC 7, Norwalk, Conn.) was used to determine the thermal transitions of the compounds. All scans were carried out from 30° C. to 200° C. at a heating and cooling rate of 10° C./minute and 40° C./min, respectively, except for 1-(3-methoxybenzyl)-3-(1-propenyl) thiourea, for which the scans were carried out from 0° C. to 200° C. at a heating rate of 10° C./min, and 1-(3-methoxybenzyl)-3-octadecyl thiourea, for which both the heating and cooling rates were 10° C./min. 1,3-di(3-methoxybenzyl) thiourea and 1-(3-methoxybenzyl)-3-dodecyl thiourea were heated to 300° C., and 1-(3-methoxybenzyl)-3-(4-methoxybenzoyl) thiourea was heated to 250° C. to determine the decomposition temperature. The decomposition temperature was taken as the onset of a decrease in the slope of the temperature-heat flow DSC curve. The first heating curve was recorded in all cases, and liquid nitrogen was used to quench the samples after the first heating.

[3] = OSI test of unrefined (crude) meadowfoam seed oil, alone or mixed with additive; details: 110° C.
Description: A presently preferred method of determining oxidative stability of lipids and oils employs the Oxidative Stability Index (OSI), which determines the oxidative stability of an oil by passing air through a sample under stringent temperature control. (Firestone, Oxidative Stability Index (OSI): Official Methods of Recommended Practices of the American Oil Chemists' Society (AOCS), 4th Ed. American Oil Chemists Society, Champaign, Ill., AOCS Official Method Cd 12b-92, 1993.) In this method, a stream of air is passed through the oil sample, which aids in the rapid degradation of the triglyceride into volatile organic acids. The air stream flushes the volatile acids from the oil into a conductivity cell containing water where the acids are solubilized. These acids, once dissolved in the water solution, disassociate into ions, thus changing the conductivity of the water. Therefore, a continuous measure of the conductivity of the cell by computer will indicate when a rapid rise in the conductivity occurs that corresponds to the induction point, oxidative failure of the sample. The time to the induction point is the OSI time. […] Saturated fatty acid methyl ester (FAME) standards commercially available from Alltech Associates (Deerfield, Ill.) may be used to calibrate the OSI determinations.
OSI determinations may be performed on an oxidative stability instrument manufactured by Omnion (Rockland, Mass.) using the AOCS method described in the above-disclosed Firestone reference. Lipid or oil samples may be run at 110° C. and FAMEs may be tested at 90° C., with air flow set at 35 kPa with a resulting velocity of about 140 ml/min. A presently preferred method for determining OSI values is described by T. A. Isbell et al., “Oxidative Stability Index of Vegetable Oils in Binary Mixtures with Meadowfoam Oil,” Industrial Crops and Products 9, 115–123 (1999).
Unless otherwise stated, Oxidative Stability Index (OSI) values were determined on 5.00 ±0.05 g lipid or oil samples in triplicate according to AOCS Official Method Cd 12b-92 (AOCS, 1993) at 90° C., 110° C. and/or 130° C. on an oxidative stability instrument manufactured by Omnion (Rockland, Mass.). Details of the procedure have been published by Isbell et al., “Oxidative Stability Index of Vegetable Oils in Binary Mixtures with Meadowfoam Oil,” Ind. Crops Prod. 9, 115–123 (1999). When compounds of the present invention were added to the lipid or oil sample being tested, the compounds (0.1% to 1.0% by weight) were added to the test lipid or oil (20 g) and dissolved or dispersed at room temperature before triplicate 5.00 g samples of lipid or oil with an added compound of the invention were weighed into the OSI test tube. […]

[4] = Behaviour on addition of water to DMSO solution (sample preparation); type: physicochemical; details: dissolved in 50 μl DMSO, water added to make 1 mg/ml
Experimental: Test compounds (1–2 mg) were originally made up at a concentration of 1 mg/ml in artificial seawater, except for water insoluble compounds, which were dissolved in 50 μl of dimethyl sulfoxide (DMSO) prior to adding enough water to make a 1 mg/ml solution. Serial dilutions were performed in 100 μl of seawater in triplicate in the wells of a 96-well microplate to give appropriate concentrations. Control wells for both water and DMSO were included with each experiment. A 100 μl solution of naupli (10–30) was added to each well, and the covered plate was incubated for 24 h at 27° C. The number of non-motile, and the total number of, naupli were counted in each well using a binocular microscope (10×). LC50 values were then calculated by Probit analysis (Finney, D. J., 1971, “Probit Analysis,” 3rd Ed.; University Press: Cambridge [Eng.]).

SMILES: COc1cccc(CNC(=S)NCc2cccc(OC)c2)c1 [1,3-di(3-methoxybenzyl) thiourea]
- Oxidative Stability (RBOT) ([1]; Refined Meadowfoam Seed Oil plus 0.05% compound): 33 min
- Oxidative Stability (RBOT) ([1]; Refined Meadowfoam Seed Oil plus 0.1% compound): 40 min
- Oxidative Stability (RBOT) ([1]; Refined Meadowfoam Seed Oil plus 0.2% compound): 41 min
- Oxidative Stability (RBOT) ([1]; Refined Meadowfoam Seed Oil plus 1.0% compound): 41 min
- Oxidative stability in the RBOT test, in words ([1]; addition of 0.1% compound): doubled
- Decomposition Temperature [2]: 265 °C
- OSI Time ([3]; 0.1% additive): 76.4 h
- improvement of OSI time compared to meadowfoam oil alone ([3]; 0.1% additive): 15%
- OSI Time ([3]; 1% additive): 211 h
- improvement of OSI time compared to meadowfoam oil alone ([3]; 1% additive): 218%
- behaviour upon the addition of water [4]: precipitated out of solution
